Results on one sequence are retold here after US8354387B2, “Methods and compositions for delivering siRNA into mammalian cells” (Centre National de la Recherche Scientifique, priority 2004, dated 2013).

The assay relates to 15PC3 cells or A549 cells (human bronchoalveolar carcinoma) tumors. Put plainly: Tumour growth after intratumoral injection in Swiss nude mice. The assay is classed as in vivo. The following applies: 20 days after injection. As for the experimental part: FIG. 8: Cyclin-B1 siRNA inhibits tumour growth. Mice were infected subcutaneously with 15PC3 cells (ATCC no CRL-1435). One week later, MPG/siRNA complexes were injected directly into the tumour, at different concentrations (1 μg, 5 μg, 10 μg, in 50 μl of PBS).
Cyclin B1 siRNA inhibits tumor growth: In vivo injections and tumors analysis. Five weeks old female Swiss nude nice were injected subcutaneously with 2×10^7 15PC3 cells or A549 cells (n^o ATCC CCL-185) (human bronchoalveolar carcinoma). When tumors reached a mean volume of 50 to 100 mm^3, (a week later), mice were injected intra-tumorally or sub-tumorally with 50 μl of PBS containing anti cyclin B1 siRNA (1, 5, 10 μg) or scrambled siRNA (50 μg) complexed with MPG or siRNA (50 μg). 50 μl of PBS was used as a control. Tumor volume was measured with calipers every two days. A second injection was performed after 10 days and tumor size was measured after 20 days.
As delivery of siRNA directed against cyclin B1 blocked proliferation of cancer cells, the role of siRNA/MPG formulation to block tumor growth in vivo. The effect of the cyclin B1 siRNA was investigated on tumor animal model (FIG. 8), using Swiss nude nice, injected subcutaneously with 2×10^7 15PC3 cells or A549 cells (human bronchoalveolar carcinoma). Different MPG/siRNA complexed were injected intratumorally and monitoring tumor volumes followed the effect of siRNA.

For the sequence “GALFLGFLGAAGSTMGAWSQPKKKRKV (carrier peptide) [MPG, bipartite amphipathic peptide derived from fusion peptide domain of HIV-1 gp41 and NLS of SV40 large T antigen]”, the tumor size increase came out at 2.5 fold.
